Publication PMC11510214, “Novel Dual Acetyl- and Butyrylcholinesterase Inhibitors Based on the Pyridyl–Pyridazine Moiety for the Potential Treatment of Alzheimer’s Disease” (Pharmaceuticals, 2024)
Where “and” joins values, the source holds several entries; their conditions need not be identical. Identical values can stand only once.

How the values were obtained:
[1] = target: T1, acetylcholinesterase (AChE) (Homo sapiens, UniProt P22303); assay: biochemical; settings: for IC50: IC50 against acetylcholinesterase (AChE), human enzyme, dose response 0.01 to 100 µM; for inhibition at 0.01 µM / inhibition at 0.1 µM / inhibition at 1 µM / inhibition at 10 µM / inhibition at 100 µM: read-out: % inhibition AChE;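 for all read-outs here: Kit-based enzyme assay using enzymes of human origin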
T1 sequence (P22303 32-614): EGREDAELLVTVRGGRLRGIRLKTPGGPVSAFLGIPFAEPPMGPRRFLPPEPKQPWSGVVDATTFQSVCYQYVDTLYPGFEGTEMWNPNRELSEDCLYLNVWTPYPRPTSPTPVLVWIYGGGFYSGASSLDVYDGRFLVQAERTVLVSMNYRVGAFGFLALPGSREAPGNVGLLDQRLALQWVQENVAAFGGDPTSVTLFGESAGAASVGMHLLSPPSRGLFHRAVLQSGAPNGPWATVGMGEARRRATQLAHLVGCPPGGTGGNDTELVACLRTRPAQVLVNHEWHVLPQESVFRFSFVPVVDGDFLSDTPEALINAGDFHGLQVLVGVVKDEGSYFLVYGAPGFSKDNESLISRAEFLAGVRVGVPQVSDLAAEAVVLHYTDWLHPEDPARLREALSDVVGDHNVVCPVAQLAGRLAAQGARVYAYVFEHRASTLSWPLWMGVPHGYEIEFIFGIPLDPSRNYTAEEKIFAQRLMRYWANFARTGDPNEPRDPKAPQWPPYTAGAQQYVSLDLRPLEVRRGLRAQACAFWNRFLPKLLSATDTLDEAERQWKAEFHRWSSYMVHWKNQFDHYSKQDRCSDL
Experimental: (§1) Experimental procedures were followed as instructed by the kits’ manufacturer. The enzymes used in the assays were of human origin. IC50 values of the compounds were calculated from the obtained dose response curve, and selectivity index was calculated as a ratio between (AChE/BuChE) IC50.

[2] = target: butyrylcholinesterase (BuChE) (Homo sapiens, UniProt P06276); assay: biochemical; settings: for IC50: IC50 against butyrylcholinesterase (BuChE), human enzyme, dose response 0.01 to 100 µM; for inhibition at 0.01 µM / inhibition at 0.1 µM / inhibition at 1 µM / inhibition at 10 µM / inhibition at 100 µM: read-out: % inhibition BuChE
butyrylcholinesterase (BuChE), sequence (P06276 29-602): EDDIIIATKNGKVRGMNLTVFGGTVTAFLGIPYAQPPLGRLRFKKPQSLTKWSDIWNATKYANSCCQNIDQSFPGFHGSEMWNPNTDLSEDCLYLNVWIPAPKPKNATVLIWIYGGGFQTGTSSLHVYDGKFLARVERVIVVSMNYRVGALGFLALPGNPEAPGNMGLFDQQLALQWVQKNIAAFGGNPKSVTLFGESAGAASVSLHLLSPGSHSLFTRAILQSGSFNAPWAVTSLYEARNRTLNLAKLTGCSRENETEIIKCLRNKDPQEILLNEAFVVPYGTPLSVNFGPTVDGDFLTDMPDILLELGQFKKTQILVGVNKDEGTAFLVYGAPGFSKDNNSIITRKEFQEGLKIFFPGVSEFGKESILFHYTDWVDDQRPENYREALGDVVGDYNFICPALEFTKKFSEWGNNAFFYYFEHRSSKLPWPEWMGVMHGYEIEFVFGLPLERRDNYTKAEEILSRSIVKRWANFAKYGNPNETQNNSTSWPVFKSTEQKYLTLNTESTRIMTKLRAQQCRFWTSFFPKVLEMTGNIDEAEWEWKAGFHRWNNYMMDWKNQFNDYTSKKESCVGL
Experimental: as §1

[3] = target: T1, acetylcholinesterase (AChE); settings: for Selectivity Index (AChE/BuChE): ratio between (AChE/BuChE) IC50; for IC50 against acetylcholinesterase (AChE): human enzyme, dose response 0.01 to 100 µM
Experimental: as §1

AChE = test system: AChE; parameters: method as in PMID 23466605, PMID 10052979, PMID 29775949, PMID 31675671; settings: Figure 1; ref [37],[30],[34],[38],[36]; read-out: AChE inhibition IC50; cited from earlier work

Row | SMILES | IC50 [1] | inhibition at 0.01 µM [1] | inhibition at 0.1 µM [1] | inhibition at 1 µM [1] | inhibition at 10 µM [1] | inhibition at 100 µM [1] | IC50 [2] | inhibition at 0.01 µM [2] | inhibition at 0.1 µM [2] | inhibition at 1 µM [2] | inhibition at 10 µM [2] | inhibition at 100 µM [2] | Selectivity Index (AChE/BuChE) [3] | IC50 against acetylcholinesterase (AChE) [3] | IC50 (AChE)
1 | OCCOCCn1cc(CSc2ccc(-c3ccccn3)nn2)nn1 [Compound 9] | 0.647 µM and 0.64 µM | 35% | 54% | 70% | 82% | 92% | 0.384 µM and 0.38 µM | 22% | 37% | 56% | 80% | 93% | 1.68 |  | 
2 | OC[C@H]1O[C@@H](n2cc(CSc3ccc(-c4ccccn4)nn3)nn2)[C@H](O)[C@@H]1O [Compound 8, (2R,3S,4R,5R)-2-(Hydroxymethyl)-5-(4-(((6-(pyridin-2-yl)pyridazin-3-yl)thio)methyl)-1H-1,2,3-triazol-1-yl)tetrahydrofuran-3,4-diol] | 0.64 ± 0.02 µM | 26% | 43% | 62% | 88% | 93% | 5.35 ± 0.17 µM | 5.9% | 13% | 22% | 55% | 82% | 0.12 |  | 
3 | CCN(C)C(=O)Oc1cccc([C@H](C)N(C)C)c1 [Rivastigmine, rivastigmine, reference compound] |  |  |  |  |  |  |  | 0.7% | 3.2% | 7% | 38% | 80% |  |  | 
4 | CC(=O)OCC1OC(n2cc(CSc3ccc(-c4ccccn4)nn3)nn2)C(OC(C)=O)C(OC(C)=O)C1OC(C)=O [Compound 3, (2R,3R,4S,5R,6R)-2-(Acetoxymethyl)-6-(4-(((6-(pyridin-2-yl)pyridazin-3-yl)thio)methyl)-1H-1,2,3-triazol-1-yl)tetrahydro-2H-pyran-3,4,5-triyltriacetate] | 8.71 µM and 8.7 µM | 7.4% | 23% | 43% | 72% | 88% | 0.297 µM and 0.29 µM | 25% | 39% | 61% | 79% | 93% | 29.32 | moderate inhibition | 
5 | CC(=O)OC[C@H]1O[C@@H](n2cc(CSc3ccc(-c4ccccn4)nn3)nn2)[C@H](OC(C)=O)[C@@H]1OC(C)=O [Compound 6, (2R,3R,4R,5R)-2-(Acetoxymethyl)-5-(4-(((6-(pyridin-2-yl)pyridazin-3-yl)thio)methyl)-1H-1,2,3-triazol-1-yl)tetrahydrofuran-3,4-diyl diacetate] | 9.15 µM | 9% | 29% | 55% | 73% | 88% | 32 ± 1.05 µM | 4% | 8.1% | 19% | 33% | 69% | 0.29 | moderate inhibition | 
6 | CC(=O)OCC1O[C@@H](n2cc(CNc3c4c(nc5ccccc35)CCCC4)nn2)C(OC(C)=O)C(OC(C)=O)C1OC(C)=O (some centres unmarked) [VI] |  |  |  |  |  |  |  |  |  |  |  |  |  |  | 4.89 µM
7 | NCCn1cc(CSc2ccc(-c3ccccn3)nn2)nn1 [Compound 11, 2-(4-(((6-(Pyridin-2-yl)pyridazin-3-yl)thio)methyl)-1H-1,2,3-triazol-1-yl)ethan-1-amine] | 14.6 ± 0.61 µM | 7.5% | 26% | 53% | 76% | 90% | 42.9 ± 1.52 µM | -8.1% | 7.5% | 12% | 33% | 71% | 0.34 |  | 
8 | CC(=O)OC[C@H]1O[C@@H](n2cc(CSc3ccc(-c4ccccn4)nn3)nn2)[C@H](OC(C)=O)[C@@H](OC(C)=O)[C@H]1OC(C)=O [Compound 4, (2R,3S,4S,5R,6R)-2-(Acetoxymethyl)-6-(4-(((6-(pyridin-2-yl)pyridazin-3-yl)thio)methyl)-1H-1,2,3-triazol-1-yl)tetrahydro-2H-pyran-3,4,5-triyl triacetate] | 11.9 ± 0.5 µM | 11% | 29% | 47% | 71% | 87% | 14.6 ± 0.48 µM | 5.1% | 11% | 20% | 41% | 75% | 0.81 |  | 
9 | OCCn1cc(CSc2ccc(-c3ccccn3)nn2)nn1 [Compound 10, 2-(4-(((6-(Pyridin-2-yl)pyridazin-3-yl)thio)methyl)-1H-1,2,3-triazol-1-yl)ethan-1-ol] | 1.84 ± 0.07 µM | 24% | 40% | 68% | 83% | 90% | 6.06 ± 0.2 µM | 5.6% | 13% | 31% | 51% | 78% | 0.30 |  | 
10 | C#CCSc1ccc(-c2ccccn2)nn1 [Compound 1, 3-(Prop-2-yn-1-ylthio)-6-(pyridin-2-yl)pyridazine] | 11.5 ± 0.48 µM | 6.1% | 23% | 51% | 74% | 89% | 4.37 ± 0.14 µM | 8.7% | 19% | 27% | 54% | 83% | 2.64 |  | 
11 | COc1cc2c(cc1OC)C(=O)C(CC1CCN(Cc3ccccc3)CC1)C2 (centres unmarked) [Donepezil, donepezil, reference compound] |  |  |  |  |  |  |  | 16% | 32% | 65% | 84% | 94% |  |  | 
12 | COc1ccc(-c2ccc(C(=O)NCCC3CCN(Cc4ccccc4)CC3)nn2)cc1 [V] |  |  |  |  |  |  |  |  |  |  |  |  |  |  | 0.11 µM
13 | OC[C@H]1O[C@@H](n2cc(CSc3ccc(-c4ccccn4)nn3)nn2)[C@H](O)[C@@H](O)[C@@H]1O [Compound 7, (2R,3S,4S,5R,6R)-2-(Hydroxymethyl)-6-(4-(((6-(pyridin-2-yl)pyridazin-3-yl)thio)methyl)-1H-1,2,3-triazol-1-yl)tetrahydro-2H-pyran-3,4,5-triol] | 3.14 ± 0.13 µM | 14% | 38% | 62% | 80% | 92% | 7.9 ± 0.26 µM | 7.8% | 13% | 23% | 48% | 79% | 0.39 | moderate inhibition | 
14 | Cc1ccc(-c2ccc(=O)n(CCc3n[nH]c(=S)n3-c3ccc(OC(F)(F)F)cc3)n2)cc1 [VII] |  |  |  |  |  |  |  |  |  |  |  |  |  |  | 0.049 µM
15 | CC(=O)OC1COC(n2cc(CSc3ccc(-c4ccccn4)nn3)nn2)C(OC(C)=O)C1OC(C)=O (centres unmarked) [Compound 5] | 0.266 µM and 0.26 µM | 42% | 61% | 71% | 83% | 94% | 0.189 µM and 0.18 µM | 25% | 48% | 67% | 78% | 91% | 1.41 |  | 
